Patent US20230310293A1, “COOLING SENSATION COMPOSITIONS” (GIVAUDAN SA, priority 2020, published 2023)

Assay: Solubility of non-natural cooling compounds in lactic acid
Type: physicochemical
Conditions: warmed to about 50° C. with gentle agitation for 1 hour per step, highest tested weight % that dissolved
Protocol: Into a 20ml vial 0.4 g of the respective non-natural cooling compound as indicated in Table 1 below have been added followed by the addition of 1.6 g lactic acid. The vial was warmed to about 50° C. with gentle agitation for 1 hour. If the respective non-natural cooling compound hasn’t dissolved, 2 g lactic acid was added (resulting in a composition comprising 10 weight % of a non-natural cooling compound), and again gentle agitated for an additional hour at about 50° C. If the non-natural cooling compound still hasn’t dissolved, 4 g of lactic acid was added (resulting in a composition comprising 5 weight % of anon-natural cooling compound), and again gentle agitated for an additional hour at about 50° C.
If the non-natural cooling compound still has not dissolved, the procedure above has been repeated, starting with 0.05 g of the non-natural cooling compound and 0.95 g of lactic acid. If still not dissolved, 1 g lactic acid was added (resulting in a composition comprising 2.5 weight % of a non-natural cooling compound). If still not dissolved further solvent was added.
If 0.4 g the non-natural cooling compound dissolved in 1.6 g lactic acid, the procedure above has been repeated, starting with 1 g of the non-natural cooling compound and 1 g lactic acid. If the respective non-natural cooling compound hasn’t dissolved, 0.5 g lactic acid was added (resulting in a composition comprising 40 weight % of a non-natural cooling compound), and again gentle agitated for an additional hour at about 50° C. If the non-natural cooling compound still hasn’t dissolved, 0.83 g of lactic acid was added (resulting in a composition comprising 30 weight % of anon-natural cooling compound), and again gentle agitated for an additional hour at about 50° C.

Row | SMILES | Soluble solution (solubility of non-natural cooling compound in lactic acid)
1 | CC1CCC(C(C)C)C(OC(=O)C(C)O)C1 (stereo not shown) [2-isopropyl-5-methylcyclohexyl 2-hydroxypropanoate] | 20 wt% wt %
2 | C=CC(C)(C)C(=O)N1CCCCC1c1ncc(-c2ccc(C)cc2)[nH]1 (stereo not shown) [2,2-dimethyl-1-(2-(5-(p-tolyl)-1H-imidazol-2-yl)piperidin-1-yl)but-3-en-1-one] | 30 wt %
3 | CCc1ccc(OCC(=O)N(Cc2cccs2)c2cc[nH]n2)cc1 [2-(4-ethylphenoxy)-N-(1H-pyrazol-3-yl)-N-(thiophen-2-ylmethyl)acetamide] | 5 wt% wt %
4 | CCC(C)C(=O)N1CCCCC1c1ncc(-c2ccc(C)cc2)[nH]1 (stereo not shown) [2-methyl-1-(2-(5-(p-tolyl)-1H-imidazol-2-yl)piperidin-1-yl)butan-1-one] | 50 wt %
5 | CC1CCC(C(C)C)C(C(=O)NCCc2ccccn2)C1 (stereo not shown) [2-isopropyl-5-methyl-N-(2-(pyridin-2-yl)ethyl)cyclohexane-1-carboxamide] | 20 wt %
6 | CCOC(=O)CNC(=O)C1CC(C)CCC1C(C)C (stereo not shown) [ethyl (2-isopropyl-5-methylcyclohexane-1-carbonyl)glycinate] | 20 wt% wt %
7 | CSC(C)C(=O)N1CCCCC1c1ncc(-c2ccc(C)cc2)[nH]1 (stereo not shown) [2-(methylthio)-1-(2-(5-(p-tolyl)imidazol-2-yl)piperidin-1-yl)propan-1-one] | 50 wt %
8 | CNC(=O)C(C)(C(C)C)C(C)C [2-isopropyl-N,2,3-trimethylbutanamide] | 20 wt% wt %
9 | CCNC(=O)C1CC(C)CCC1C(C)C (stereo not shown) [N-Ethyl-p-menthane-3-carboxamide] | 10 wt% wt %
10 | Cc1ccc(OCC(=O)N(Cc2cccs2)c2ccn[nH]2)cc1 [N-(1H-pyrazol-3-yl)-N-(thiophen-2-ylmethyl)-2-(p-tolyloxy)acetamide] | 30 wt %
11 | CSC(C)(C)C(=O)N1CCCCC1c1ncc(-c2ccc(C)cc2)[nH]1 (stereo not shown) [2-methyl-2-(methylthio)-1-(2-(5-(p-tolyl)-1H-imidazol-2-yl)piperidin-1-yl)propan-1-one] | 40 wt %
12 | CC1CCC(C(C)C)C(C(=O)Nc2ccc(CC(N)=O)cc2)C1 (stereo not shown) [N-(4-(2-amino-2-oxoethyl)phenyl)-2-isopropyl-5-methylcyclohexane-1-carboxamide] | 2.5 wt% wt %
13 | CC(C)C1CCC(C)(C)CC1C(=O)NCC(O)c1ccccc1 (stereo not shown) [N-(2-hydroxy-2-phenylethyl)-2-isopropyl-5,5-dimethylcyclohexane-1-carboxamide] | 5 wt% wt %
